From US20110045101A1, “FUNGICIDAL SUBSTITUTED AZOLES” (E.I. Du Pont De Nemours and Company, priority 2009, published 2011)
Marks after values point to notes of the source that are not given here.

What was measured:
Format in all cases: in vivo
Conditions in all cases: 100 = 100% disease control
[1] = test system: Puccinia recondita f. sp. tritici; assay: Test H: wheat leaf rust, test suspension sprayed after inoculation of wheat seedlings, visual disease rating
Outline: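 Wheat seedlings inoculated with P. recondita spores, held 24 h saturated at 20 °C, then 2 days in growth chamber at 20 °C; compound suspension (acetone/water with Trem 014) sprayed to run-off afterwards. Rated visually; 200 ppm (≈500 g/ha) unless marked *, which denotes 40 ppm.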

[2] = test system: Erysiphe graminis f. sp. tritici; assay: Test J: wheat powdery mildew on wheat seedlings, sprayed the day before inoculation, visual disease rating
Outline: (§1)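 200 ppm run-off spray (500 g/ha equivalent); * = 40 ppm. Vehicle: acetone/water 50/50, 250 ppm Trem® 014.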

[3] = test system: Puccinia recondita f. sp. tritici; assay: Test I: wheat leaf rust on wheat seedlings, sprayed the day before inoculation, visual disease rating
Outline: as §1

Alternaria solani = assay: Test D: tomato early blight, sprayed the day before inoculation, visual disease rating
Outline: as §1

Septoria tritici = assay: Test G: wheat leaf blotch on wheat seedlings, sprayed the day before inoculation, visual disease rating
Outline: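 Wheat seedlings were sprayed to run-off with test suspension (acetone/water plus surfactant), generally 200 ppm (≈500 g/ha), or 40 ppm where marked. Septoria tritici spores were inoculated the next day; plants were held 48 h at 24°C in saturated atmosphere, then 19 days at 20°C before visual disease rating.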

Botrytis cinerea = assay: Test C: tomato Botrytis on tomato seedlings, sprayed the day before inoculation, visual disease rating
Outline: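 Tomato seedlings were sprayed until run-off with test suspensions in acetone/water (50/50) carrying 250 ppm polyhydric alcohol ester surfactant. Standard dose was 200 ppm, with 40 ppm for marked entries.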

Septoria nodorum = assay: Test F: wheat glume blotch on wheat seedlings, sprayed the day before inoculation, visual disease rating
Outline: as §1

[4] = 40 ppm (marked *), 0 = no control
[5] = 200 ppm, 0 = no control relative to controls

Structure (SMILES)	Test H disease control rating [1, 5] [%]	Test J disease control rating [2, 5] [%]	Test I disease control rating [3, 5] [%]	Test D disease control rating (Alternaria solani; [5]) [%]	Test G disease control rating (Septoria tritici; [5]) [%]	Test C disease control rating (Botrytis cinerea; [5]) [%]	Test F disease control rating (Septoria nodorum; [5]) [%]	further results
CSc1sc(-c2c(Br)nc(Br)n2-c2ccc(Cl)cc2)cc1Br [compound 408]								Test H disease control rating [1, 4]: 0* %; Test J disease control rating [2, 4]: 0* %; Test I disease control rating [3, 4]: 0* %; Test D disease control rating (Alternaria solani; [4]): 0* %; Test G disease control rating (Septoria tritici; [4]): 3* %; Test C disease control rating (Botrytis cinerea; [4]): 0* %; Test F disease control rating (Septoria nodorum; [4]): 0* %
CN(C)c1ncn(Cc2ccc(Cl)cc2)c1-c1c(F)ccc(F)c1F [compound 267]								Test H disease control rating ([1]; 200 ppm, 0 = no control): 9%; Test J disease control rating ([2]; 200 ppm, 0 = no control): 97%; Test I disease control rating ([3]; 200 ppm, 0 = no control): 86%; Test D disease control rating (Alternaria solani; 200 ppm, 0 = no control): 0%; Test G disease control rating (Septoria tritici; 200 ppm, 0 = no control): 91%; Test C disease control rating (Botrytis cinerea; 200 ppm, 0 = no control): 98%; Test F disease control rating (Septoria nodorum; 200 ppm, 0 = no control): 0%
COc1ccc(F)c(-c2c(Cl)nc(Cl)n2-c2ccc(Br)cc2)c1F [compound 562]	0	100	99	100	100	100	99	
COc1ccc(F)c(-c2c(N(C)C)ncn2Cc2ccc(Cl)cc2)c1F [compound 271]								Test H disease control rating ([1]; 200 ppm, 0 = no control): 0%; Test J disease control rating ([2]; 200 ppm, 0 = no control): 0%; Test I disease control rating ([3]; 200 ppm, 0 = no control): 83%; Test D disease control rating (Alternaria solani; 200 ppm, 0 = no control): 9%; Test G disease control rating (Septoria tritici; 200 ppm, 0 = no control): 82%; Test C disease control rating (Botrytis cinerea; 200 ppm, 0 = no control): 99%; Test F disease control rating (Septoria nodorum; 200 ppm, 0 = no control): 0%
Fc1cc(F)c(-c2c(Cl)ncn2-c2ccc(OC(F)F)cc2)c(F)c1 [compound 585]	0	99	100	99	100	100	0	
CC(=O)Nc1ccc(-n2c(Br)nc(Cl)c2-c2c(F)cccc2F)cc1 [compound 643]								Test H disease control rating ([1]; 40 ppm (marked *)): 0* %; Test J disease control rating ([2]; 40 ppm (marked *)): 0* %; Test I disease control rating ([3]; 40 ppm (marked *)): 52* %; Test D disease control rating (Alternaria solani; 40 ppm (marked *)): 0* %; Test G disease control rating (Septoria tritici; 40 ppm (marked *)): 87* %; Test C disease control rating (Botrytis cinerea; 40 ppm (marked *)): 0* %; Test F disease control rating (Septoria nodorum; 40 ppm (marked *)): 0* %
COc1cc(F)c(-c2c(Cl)ncn2-c2ccccc2)c(F)c1 [compound 420]	0	100	100	100	100	100	99	
COc1cc(F)c(-c2c(Cl)nc(Cl)n2Cc2ccc(Cl)cc2)c(F)c1 [compound 284]								Test H disease control rating ([1]; 200 ppm, 0 = no control): 6%; Test J disease control rating ([2]; 200 ppm, 0 = no control): 100%; Test I disease control rating ([3]; 200 ppm, 0 = no control): 99%; Test D disease control rating (Alternaria solani; 200 ppm, 0 = no control): 99%; Test G disease control rating (Septoria tritici; 200 ppm, 0 = no control): 95%; Test C disease control rating (Botrytis cinerea; 200 ppm, 0 = no control): 100%; Test F disease control rating (Septoria nodorum; 200 ppm, 0 = no control): 92%
Fc1ccc(F)c(-c2c(Br)nc(Br)n2-c2ccc(Cl)cc2)c1F [compound 383]								Test H disease control rating [1, 4]: 0* %; Test J disease control rating [2, 4]: 98* %; Test I disease control rating [3, 4]: 91* %; Test D disease control rating (Alternaria solani; [4]): 99* %; Test G disease control rating (Septoria tritici; [4]): 96* %; Test C disease control rating (Botrytis cinerea; [4]): 100* %; Test F disease control rating (Septoria nodorum; [4]): 35* %
Cc1nc(C)n(-c2ccc(F)cc2Cl)c1-c1ccc(Cl)cc1 [compound 307]	11	99	97	99	97	100	0	
Cc1nc(Cl)c(-c2c(F)ccc(F)c2F)n1-c1ccc(Cl)c(Cl)c1 [compound 480]	0	100	99	100	96	100	95	
COc1cc(OC)c(Cl)c(-n2cnc(Br)c2-c2ccc(Cl)cc2F)c1 [compound 641]	100	83	100	96	99	95	94	
COc1cc(F)c(-c2c(Cl)nc(Br)n2-c2ccccc2)c(F)c1Br [compound 429]	0	98	98	77	99	99	0	
Cc1ncc(Cc2c(F)cc(F)cc2F)n1-c1ccc(Cl)cc1 [compound 530]	0	71	88	0	58	0	0	
COc1ccc(F)c(-c2c(Br)nc(Br)n2-c2ccc(Cl)cc2)c1F [compound 471]	0	100	98	100	97	100	100	
Fc1cc(F)c(-c2c(Cl)ncn2-c2cccc(OC(F)(F)F)c2)c(F)c1 [compound 586]	0	21	0	0	3	0	0	
COc1ccc(F)c(-c2c(Cl)nc(Br)n2-c2ccc(C#N)cc2)c1F [compound 596]	0	97	74	73	98	94	0	
CCc1cccc(-n2c(Cl)nc(Cl)c2-c2c(F)ccc(OC)c2F)c1 [compound 427]	0	100	93	100	100	100	99	
Cc1nc(Cl)c(-c2c(F)cccc2F)n1-c1ccc(Cl)c2ccccc12 [compound 304]								Test H disease control rating [1, 4]: 0* %; Test J disease control rating [2, 4]: 0* %; Test I disease control rating [3, 4]: 0* %; Test D disease control rating (Alternaria solani; [4]): 0* %; Test G disease control rating (Septoria tritici; [4]): 27* %; Test C disease control rating (Botrytis cinerea; [4]): 0* %; Test F disease control rating (Septoria nodorum; [4]): 0* %
COc1cc(F)c(-c2c(Cl)nc(Cl)n2-c2ccc(Cl)nc2)c(F)c1 [compound 406]	100	100	100	100	93	100	100	
